Measured values: patent US10457644B2, “Pyrazol compounds as EAAT3 inhibitors” (Hoffmann-La Roche Inc., priority 2016, dated 2019)

Legend:
human EAAT3 = target: T1, human EAAT3 (Homo sapiens, UniProt P43005); experiment: FLIPR Membrane Potential (FMP) assay; type: cell-based; details: HEK-293 cells stably expressing human EAAT3; L-glutamate as agonist at 80% of maximum response; antagonist applied 15 min before; Kb by Cheng-Prusoff from IC50
T1 construct: expressed in transfected cells
T1 sequence (P43005 1-524): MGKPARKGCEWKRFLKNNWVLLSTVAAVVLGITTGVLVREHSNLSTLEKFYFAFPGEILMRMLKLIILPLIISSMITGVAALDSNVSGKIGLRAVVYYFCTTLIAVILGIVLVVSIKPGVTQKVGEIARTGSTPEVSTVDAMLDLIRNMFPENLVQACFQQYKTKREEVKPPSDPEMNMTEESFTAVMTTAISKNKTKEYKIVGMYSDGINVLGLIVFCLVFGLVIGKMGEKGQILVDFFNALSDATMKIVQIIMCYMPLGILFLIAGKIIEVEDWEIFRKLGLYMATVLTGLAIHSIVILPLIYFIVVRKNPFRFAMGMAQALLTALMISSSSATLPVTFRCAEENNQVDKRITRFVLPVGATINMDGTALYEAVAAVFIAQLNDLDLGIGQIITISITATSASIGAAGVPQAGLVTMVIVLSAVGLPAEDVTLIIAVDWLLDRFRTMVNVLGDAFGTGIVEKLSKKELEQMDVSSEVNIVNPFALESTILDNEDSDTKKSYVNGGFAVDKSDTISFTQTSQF
Protocol: The FLIPR Membrane Potential (FMP) Assay
HEK-293 cells stably expressing human EAAT3 were seeded at 55 000 cells/well in growth medium (DMEM glutamate free (Invitrogen 11960-044), 1% Pen Strep (10 ml/l GIBCO BRL N^o 15140-023), 10% FCS non dialysed heat inactivated, 5 mg/l puromycin) in poly-D-lysine treated 96-well black microtiter plates with clear-bottom. After 24 h, the growth medium was removed and 100 μl/well of Krebs buffer (140 mM NaCl, 4.7 mM KCl, 2.5 mM CaCl2, 1.2 mM MgCl2, 11 mM HEPES, 10 mM D-glucose, pH=7.4) added. The cells were then loaded by adding 100 μl/well FMP assay dye (FLIPR Membrane Potential assay reagent, Molecular Devices). The 96-well plates were then incubated at 37° C. for 1 h. The depolarization of the cells will cause more dye to enter in the cells, where it will bind to intracellular proteins and lipids and cause an increase in the fluorescence signal. Antagonist potency at human EAAT3 was determined by using L-glutamate as agonist at a concentration which gives 80% of the maximum response. The antagonists were applied 15 min before the application of the agonist L-glutamate. The assays were performed at room temperature and measurements done by using a Fluorometric Imaging Plate Reader (FLIPR, Molecular Devices) and filter #2. Responses were measured as peak increase in fluorescence minus basal (i.e. fluorescence without addition of L-glutamate). Kb was determined using the Cheng-Prusoff equation Kb=IC50/[1+(A/EC50)], where IC50 is the concentration of the antagonist producing 50% inhibition, A is the concentration of the agonist against which the IC50 is being determined ([…]) and EC50 is the concentration of the agonist producing […].

| Kb (human EAAT3) [nM] | melting point [°C] | SMILES |
| --- | --- | --- |
| 110 | 66 | CC(C)(C)NC(=O)c1cc(-c2ccc(F)cc2)cc(-c2ccnn2C2CC2)c1 [Example 23, N-tert-Butyl-3-(2-cyclopropyl-pyrazol-3-yl)-5-(4-fluorophenyl)-benzamide] |
| 250 | 159 | CC(C)(C)NC(=O)c1cc(-c2ccc(Cl)cc2)cc(-c2ccnn2CC2CC2)c1 [Example 25, N-tert-Butyl-3-(4-chlorophenyl)-5-[2-(cyclopropyl-methyl)-pyrazol-3-yl]-benzamide] |
| 470 | 199.5 | CC(C)(C)NC(=O)c1cc(-c2ccccc2)cc(-c2ccnn2C(C)(C)C)c1 [Example 28, N-tert-Butyl-3-(2-tert-butyl-pyrazol-3-yl)-5-phenyl-benzamide] |
| 290 | 70 | CCn1nccc1-c1cc(C(=O)NC(C)(C)C)cc(-c2ccc(C(F)(F)F)cc2)c1 [Example 48, N-tert-Butyl-3-(2-ethyl-pyrazol-3-yl)-5-[4-(trifluoromethyl)-phenyl]-benzamide] |
| 400 | 69 | CC(C)(C)NC(=O)c1cc(-c2ccc(C(F)(F)F)cc2)cc(-c2ccnn2CC2CC2)c1 [Example 44, N-tert-Butyl-3-[2-(cyclopropylmethyl)-pyrazol-3-yl]-5-[4-(trifluoromethyl)-phenyl]-benzamide] |
| 390 | 82 | CC(C)n1nccc1-c1cc(C(=O)NC(C)(C)C)cc(-c2ccc(F)c(F)c2)c1 [Example 8, N-tert-Butyl-3-(3,4-difluorophenyl)-5-(2-propan-2-yl-pyrazol-3-yl)-benzamide] |
| 280 | 188 | CC(C)(C)NC(=O)c1cc(-c2ccc(F)cc2)cc(-c2ccnn2CC2CC2)c1 [Example 46, N-tert-Butyl-3-[2-(cyclopropylmethyl)-pyrazol-3-yl]-5-(4-fluorophenyl)-benzamide] |
| 260 | 72 | CC(C)(C)NC(=O)c1cc(-c2ccc(Cl)cc2)cc(-c2ccnn2C2CC2)c1 [Example 45, N-tert-Butyl-3-(4-chlorophenyl)-5-(2-cyclopropyl-pyrazol-3-yl)-benzamide] |
| 280 | 205 | CC(C)(C)NC(=O)c1cc(-c2ccc(C(F)(F)F)cc2)cc(-c2ccnn2C(C)(C)C)c1 [Example 3, N-tert-Butyl-3-(2-tert-butyl-pyrazol-3-yl)-5-[4-(trifluoromethyl)-phenyl]-benzamide] |
| 320 | 96 | CC(C)n1nccc1-c1cc(C(=O)NC(C)(C)C#N)cc(-c2ccc(Cl)cc2)c1 [Example 21, 3-(4-Chlorophenyl)-N-(2-cyano-propan-2-yl)-5-(2-propan-2-yl-pyrazol-3-yl)-benzamide] |
| 410 | 175 | CC(C)(C)NC(=O)c1cc(-c2ccc(F)c(Cl)c2)cc(-c2ccnn2C(C)(C)C)c1 [Example 32, N-tert-Butyl-3-(2-tert-butyl-pyrazol-3-yl)-5-(3-chloro-4-fluoro-phenyl)-benzamide] |
| 620 | 77.5 | CC(C)n1nccc1-c1cc(C(=O)NC(C)(C)C(F)(F)F)cc(-c2ccc(Cl)cc2)c1 [Example 40, 3-(4-Chlorophenyl)-5-(2-propan-2-yl-pyrazol-3-yl)-N-(1,1,1-trifluoro-2-methyl-propan-2-yl)-benzamide] |
| 260 | 163 | Cc1ccc(-c2cc(C(=O)NC(C)(C)C)cc(-c3ccnn3C(C)C)c2)cc1 [Example 9, N-tert-Butyl-3-(4-methylphenyl)-5-(2-propan-2-yl-pyrazol-3-yl)-benzamide] |
| 360 | 81 | Cc1ccc(-c2cc(C(=O)NC(C)(C)C)cc(-c3ccnn3C(C)C)c2)cc1F [Example 20, N-tert-Butyl-3-(3-fluoro-4-methyl-phenyl)-5-(2-propan-2-yl-pyrazol-3-yl)-benzamide] |
| 110 | 162 | CCn1nccc1-c1cc(C(=O)NC(C)(C)C)cc(-c2ccc(F)cc2)c1 [Example 47, N-tert-Butyl-3-(2-ethyl-pyrazol-3-yl)-5-(4-fluorophenyl)-benzamide] |
| 930 | 186 | Cc1cc(-c2cc(C(=O)NC(C)(C)C)cc(-c3ccnn3C(C)(C)C)c2)ccc1F [Example 27, N-tert-Butyl-3-(2-tert-butyl-pyrazol-3-yl)-5-(4-fluoro-3-methyl-phenyl)-benzamide] |
| 260 | 83 | CC(C)(CO)NC(=O)c1cc(-c2ccc(Cl)cc2)cc(-c2ccnn2C(C)(C)C)c1 [Example 41, 3-(2-tert-Butyl-pyrazol-3-yl)-5-(4-chlorophenyl)-N-(1-hydroxy-2-methylpropan-2-yl)-benzamide] |
| 320 | 209 | CC(C)(C)NC(=O)c1cc(-c2ccc(Cl)cc2)cc(-c2ccnn2C(C)(C)C)c1 [Example 4, N-tert-Butyl-3-(2-tert-butyl-pyrazol-3-yl)-5-(4-chlorophenyl)-benzamide] |
| 330 | 94 | CC(C)n1nccc1-c1cc(C(=O)NC(C)(C)C)cc(-c2ccc(C#N)cc2)c1 [Example 17, N-tert-Butyl-3-(4-cyano-phenyl)-5-(2-propan-2-yl-pyrazol-3-yl)-benzamide] |
